Test results taken from patent US10314834B2, “Therapeutic agent or treatment method for Philadelphia chromosome-positive (Ph+) acute lymphocytic leukemia (ALL) having IKZF1 mutation” (UNIVERSITY OF YAMANASHI, priority 2015, dated 2019).

Columns and labels:
[1] = tested on: Ph+ALL cell strain (KOPN57bi); test: Viable cells by alamar blue method; type: cell-based, human; details: LMD 20 μM, IM 0.5 μM, 3 days
IKZF1 protein = test: Change of IKZF1 expression by western blotting; type: cell-based, human; details: KOPN57bi; LMD 20 μM, IM 0.5 nM; 24 hours
[2] = tested on: Ph+ALL cell strain (KOPN57bi); test: Apoptosis by active caspase-3 antibody, flow cytometry; type: cell-based, human; details: LMD 20 μM, IM 0.5 μM, 3 days, compared with no addition
Excerpt: After fixation of cell membrane, the cells were stained with anti-active caspase-3 antibodies and positive cells were investigated by using flow cytometry.

Ph+ALL strain KOPN57bi = test: H^3-thymidine uptake method, Ph+ALL strain KOPN57bi; type: cell-based; details: Homo sapiens, 144 h, read-out: % inhibition of H^3-thymidine uptake
Excerpt: Effect in the combination was recognized from 2 days in the culture, and % inhibition reached to 90% or more on 3 days in the culture.

[3] = tested on: Ph+ALL cell strain (KOPN57bi); test: Cell death by Annexin V/propidium iodide (PI) double staining, flow cytometry; details: Homo sapiens, 72 h, read-out: viable cell fraction (Annexin V-, PI-)
Excerpt: At an early stage of cell death, specific phospholipids are exposed on the cell membrane. By labeling Annexin V, which strongly binds to the phospholipid, with a fluorescent dye, rate of the early cell death can be detected by using flow cytometry. On the other hand, at a late stage of cell death, cell membrane/nuclear membrane is partially destroyed.

[4] = tested on: Ph+ALL cell strain (KOPN57bi); test: Immunodeficient mice transplanted with Ph+ALL cells, in vivo; set-up: species or system NOD/SCID/γ null mouse (NOG mouse); details: NOG mouse; LMD 30 mg/kg/day, IM 150 mg/kg/day, PO; two weeks after administration; saline approximately 30%
Excerpt: NOD/SCID/γ null mouse (NOG mouse) is widely used for research as immunodeficient mouse capable of efficiently transplanting human hematopoietic stem cells or tumor cells. A mouse transplanted with human leukemia cells is a system that can study therapeutic effect of a drug on human leukemia cells in the mouse body (in vivo). […] The mice were observed over time. Proportion of Ph+ALL cells in mononuclear cell fraction was investigated by using flow cytometry after isolating mononuclear cell fraction from mouse bone marrow blood two weeks after administration and staining with anti-human CD45 antibody binding to human leukemia cells.

[5] = tested on: Ph+ALL cell strain (KOPN57bi); test: Cell turnover by PI staining, flow cytometry; type: cell-based, human; details: LMD 20 μM, IM 0.5 μM, 3 days
Experimental: When PI staining is performed under the condition that the cell membrane/nuclear membrane is fixed with a drug and PI can freely bind to intranuclear DNA, staining intensity changes depending on amount of DNA. Thus, cell turnover stop phase (G0/G1 phase, 2N), DNA synthesis phase (S phase, 2N→4N), pre-cell division phase (G2 phase, 4N) and cell division phase (M phase, 4N→2N) can be distinguished each other by using flow cytometry. In addition, when the cell death is induced by apoptosis, a cell fraction that DNA amount decreases by DNA cleavage (less than 2N) from the G0/G1 phase is detected.

| Structure (SMILES) | number of viable cells (alamar blue) [1] | expression of dominant-negative isoform (Ik 6) (IKZF1 protein) | active caspase-3 positive rate [2] | inhibition at 20 µM (Ph+ALL strain KOPN57bi) [%] | viability at 20 µM [3] [%] | proportion of Ph+ALL cells (human CD45 positive) in bone marrow mononuclear cell fraction [4] [%] | S phase fraction [5] | apoptotic fraction (less than 2N) [5] |
| --- | --- | --- | --- | --- | --- | --- | --- | --- |
| Cc1ccc(NC(=O)c2ccc(CN3CCN(C)CC3)cc2)cc1Nc1nccc(-c2cccnc2)n1 [IM, 4-(4-Methylpiperazin-1-ylmethyl)-N-[4-methyl-3-(4-pyridin-3-ylpyrimidin-2-ylamino)benzamide monomethanesulfonate] | mildly decreased | No change | slightly increased | – | – | – | – | – |
| Nc1cccc2c1CN(C1CCC(=O)NC1=O)C2=O (racemic) [LMD, (RS)-3-(4-amino-1-oxo-3H-isoindol-2-yl) piperidine-2,6-dione] | mildly decreased | – | slightly increased | ~80 | ~60 | 2.1 | decrease | mild increase |
